The series can be described thus: saturated solubility of RebA and RebD in ethanol solvent (excess loading, 24 h stirring, filtrate measured with LCMS). The class given is physicochemical. The conditions noted are these: for saturated solubility: 90% by mass of EtOH, 10° C., values used in calculation of the degree of supersaturation; for saturated dissolution concentration: 90% ethanol solvent at 10° C., according to FIG. 1. How it is done: The saturated solubility is herein measured according to the following method. That is, 100 ml of a solvent having a predetermined methanol or ethanol concentration (w/w) is placed in a container (having a volume of 100 ml or 200 ml, suitably 200 ml), the liquid temperature is set to 10° C. by a water bath in advance, and then the solvent is stirred at 200 rpm, and a target substance is loaded in an excessive amount (amount until suspension is made). After 24 hours, a filtrate is obtained by a 0.45-um membrane filter, and the amount of the target substance (RebA or RebD) included in the filtrate is measured with LCMS. LCMS here used is suitably LCMS 8050 manufactured by Shimadzu Corporation.
Specifically, 100 ml of a solvent having a predetermined ethanol concentration (w/w) was placed in a […] glass container (separable round-bottomed flask, Tokyo Rikakikai Co., Ltd.), set to a predetermined temperature by a water bath (PCC-7000, Tokyo Rikakikai Co., Ltd.) in advance, and then stirred (SPZ-100, Tokyo Rikakikai Co., Ltd.) at 200 rpm, and RebA (J-100, Morita Kagaku Kogyo Co., Ltd.) or RebD (Jining Renewal & Joint International, China) was loaded in an excessive amount (amount until suspension was achieved). After 24 hours, a filtrate was obtained by a 0.45-um membrane filter, the amount of RebA or RebD included in the filtrate was measured with LCMS (LCMS 8050 manufactured by Shimadzu Corporation), and the solubility curve was created. The results are illustrated in FIG. 1.

For the molecule `C=C1C[C@@]23CC[C@H]4[C@@](C)(CCC[C@@]4(C)C(=O)O[C@@H]4O[C@H](CO)[C@@H](O)[C@H](O)[C@H]4O)[C@@H]2CC[C@]1(O[C@@H]1O[C@H](CO)[C@@H](O)[C@H](O[C@@H]2O[C@H](CO)[C@@H](O)[C@H](O)[C@H]2O)[C@H]1O[C@@H]1O[C@H](CO)[C@@H](O)[C@H](O)[C@H]1O)C3` [RebA, rebaudioside A], the saturated solubility was 8270.5 ppm and the saturated dissolution concentration was 8,250 ppm.
The like results for `C=C1C[C@@]23CC[C@H]4[C@@](C)(CCC[C@@]4(C)C(=O)O[C@@H]4O[C@H](CO)[C@@H](O)[C@H](O)[C@H]4O[C@@H]4O[C@H](CO)[C@@H](O)[C@H](O)[C@H]4O)[C@@H]2CC[C@]1(O[C@@H]1O[C@H](CO)[C@@H](O)[C@H](O[C@@H]2O[C@H](CO)[C@@H](O)[C@H](O)[C@H]2O)[C@H]1O[C@@H]1O[C@H](CO)[C@@H](O)[C@H](O)[C@H]1O)C3` [RebD, rebaudioside D] were, in that order, 99.33 ppm and 99.3 ppm.
